Reference: article PMC3688631 (ACS medicinal chemistry letters, 2013)

Key:
[1] = tested on: Akt phosphorylation in MDA-MB-468; test: Cellular inhibition of Akt phosphorylation; assay type: cell-based; settings: Homo sapiens, MDA-MB-468, read-out: inhibition of Akt phosphorylation IC50
[2] = target: 96 kinases; test: KinomeScan screen versus another 96 kinases; assay type: binding
[3] = target: PI3Kβ D862Q (Homo sapiens, UniProt P42338, D862Q); settings: cited from earlier work
PI3Kβ D862Q, sequence (P42338 whole entry D862Q): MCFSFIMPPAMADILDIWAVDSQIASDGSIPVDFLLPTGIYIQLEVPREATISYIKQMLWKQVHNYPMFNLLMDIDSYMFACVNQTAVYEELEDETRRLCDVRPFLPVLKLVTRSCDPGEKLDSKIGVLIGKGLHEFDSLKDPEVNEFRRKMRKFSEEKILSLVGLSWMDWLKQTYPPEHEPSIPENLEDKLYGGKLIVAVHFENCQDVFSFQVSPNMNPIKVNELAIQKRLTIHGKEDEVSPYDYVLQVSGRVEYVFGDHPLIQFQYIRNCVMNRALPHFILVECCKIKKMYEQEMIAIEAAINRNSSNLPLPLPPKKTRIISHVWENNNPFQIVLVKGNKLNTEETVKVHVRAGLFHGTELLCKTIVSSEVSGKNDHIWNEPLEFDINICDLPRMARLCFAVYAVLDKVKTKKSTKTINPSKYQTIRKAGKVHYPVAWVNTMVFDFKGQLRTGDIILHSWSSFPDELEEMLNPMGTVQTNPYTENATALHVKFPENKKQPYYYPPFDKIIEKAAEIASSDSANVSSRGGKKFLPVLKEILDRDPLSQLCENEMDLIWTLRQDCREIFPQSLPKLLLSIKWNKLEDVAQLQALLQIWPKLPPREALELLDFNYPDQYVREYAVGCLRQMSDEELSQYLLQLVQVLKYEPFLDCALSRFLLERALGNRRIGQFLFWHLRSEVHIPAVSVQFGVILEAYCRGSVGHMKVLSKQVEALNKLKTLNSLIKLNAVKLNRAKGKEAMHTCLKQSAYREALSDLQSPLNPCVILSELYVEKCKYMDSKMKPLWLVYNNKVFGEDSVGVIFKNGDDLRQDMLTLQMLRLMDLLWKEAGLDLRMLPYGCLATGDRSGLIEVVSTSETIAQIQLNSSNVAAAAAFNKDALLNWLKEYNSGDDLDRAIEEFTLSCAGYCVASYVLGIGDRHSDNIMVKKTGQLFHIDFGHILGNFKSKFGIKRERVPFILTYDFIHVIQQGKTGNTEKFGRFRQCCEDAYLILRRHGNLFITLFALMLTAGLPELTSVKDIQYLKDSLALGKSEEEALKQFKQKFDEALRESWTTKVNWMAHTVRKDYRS
PI3Kβ D862Q, sequence (P27986 whole entry partner): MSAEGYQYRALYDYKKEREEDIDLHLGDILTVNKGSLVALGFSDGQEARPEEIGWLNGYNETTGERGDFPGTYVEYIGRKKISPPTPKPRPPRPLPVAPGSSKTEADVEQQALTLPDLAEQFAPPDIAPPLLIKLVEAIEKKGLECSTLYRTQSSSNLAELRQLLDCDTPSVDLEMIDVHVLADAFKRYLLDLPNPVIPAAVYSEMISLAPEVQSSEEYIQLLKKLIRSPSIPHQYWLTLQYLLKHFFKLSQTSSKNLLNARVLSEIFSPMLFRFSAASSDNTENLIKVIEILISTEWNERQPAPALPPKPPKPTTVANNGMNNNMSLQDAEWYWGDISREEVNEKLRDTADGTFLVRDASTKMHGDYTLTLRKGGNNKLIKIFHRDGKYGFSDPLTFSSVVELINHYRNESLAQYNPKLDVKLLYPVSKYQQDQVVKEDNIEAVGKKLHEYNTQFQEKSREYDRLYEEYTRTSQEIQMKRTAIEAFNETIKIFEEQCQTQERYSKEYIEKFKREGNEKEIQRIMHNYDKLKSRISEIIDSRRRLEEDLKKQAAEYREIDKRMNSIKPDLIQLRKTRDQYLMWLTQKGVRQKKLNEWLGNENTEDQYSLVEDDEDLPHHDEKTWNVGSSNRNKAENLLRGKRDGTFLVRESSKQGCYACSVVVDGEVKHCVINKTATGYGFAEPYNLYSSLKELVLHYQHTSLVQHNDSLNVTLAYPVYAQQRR

IC50 [1]	SMILES	KinomeScan binding affinity versus another 96 kinases [2]	effect of mutation D862Q in PI3Kβ on inhibition [3]
< 10 nM	N[C@@H](Cc1ccccc1)C(=O)N1CCN(c2nc(N3CCOCC3)nc(-n3c(C(F)F)nc4ccccc43)n2)CC1 [Compound 21]	only the class II PI3K PI3KC2β showed binding affinity comparable to that seen for PI3Kβ	
	Cc1cc(C(C)Nc2ccccc2)c2nc(N3CCOCC3)cc(=O)n2c1 (stereo not drawn) [TGX221]		unaffected
